According to patent US5194432A, “Cephem compounds” (Fujisawa Pharmaceutical Co., Ltd., priority 1985, dated 1993):
Converted amounts (≈) assume the structure as drawn.

How the values were obtained:
Format in all cases: cell-based
P. mirabilis 1 = test: In vitro antibacterial activity, two-fold agar-plate dilution method (MIC), P. mirabilis 1; settings: Proteus mirabilis, heart infusion agar, 10^6 viable cells per ml, 37° C., 20 hours, read-out: MIC (minimal inhibitory concentration)
Protocol: (§1) In vitro antibacterial activity was determined by the two-fold agar-plate dilution method as described below.
(§2) One loopful of an overnight culture of each test strain in Trypticase-soy broth (10^6 viable cells per ml) was streaked on heart infusion agar (HI-agar) containing graded concentrations of representative test compound, and the minimal inhibitory concentration (MIC) was expressed in terms of μg/ml after incubation at 37° C. for 20 hours.

P. vulgaris IAM1025 = test: In vitro antibacterial activity, two-fold agar-plate dilution method (MIC), P. vulgaris IAM1025; settings: Proteus vulgaris, heart infusion agar, 10^6 viable cells per ml, 37° C., 20 hours, read-out: MIC (minimal inhibitory concentration)
Protocol: as §1, §2

E. coli 31 = test: In vitro antibacterial activity, two-fold agar-plate dilution method (MIC), E. coli 31; settings: Escherichia coli, heart infusion agar, 10^6 viable cells per ml, 37° C., 20 hours, read-out: MIC (minimal inhibitory concentration)
Protocol: as §1, §2

Which MIC (P. mirabilis 1) does the source give for `CO/N=C(\C(=O)N[C@@H]1C(=O)N2C(C(=O)[O-])=C(C[n+]3cc(C)c(N)n3C)CS[C@H]12)c1csc(N)n1` [Compound C, 7β-[2-(2-Aminothiazol-4-yl)-2-methoxyiminoacetamido]-3-(3-amino-2,4-dimethyl-1-pyrazolio)methyl-3-cephem-4-carboxylate (syn isomer)] here?
The MIC was 0.05 µg/mL (≈ 0.0987 µM).

What about the MIC (P. vulgaris IAM1025) of the same compound?
The MIC was no more than 0.025 µg/mL.

What about the MIC (E. coli 31) of the same compound?
Its MIC is no more than 0.025 µg/mL.

With `Cn1ccc[n+]1CC1=C(C(=O)[O-])N2C(=O)[C@@H](NC(=O)/C(=N\OC(F)F)c3csc(N)n3)[C@H]2SC1` [Compound A, 7β-[2-(2-Aminothiazol-4-yl)-2-(difluoromethoxyimino)acetamido]-3-(2-methyl-1-pyrazolio)methyl-3-cephem-4-carboxylate (syn isomer)] as the compound, how does the MIC (P. mirabilis 1) read?
The MIC was 0.05 µg/mL (≈ 0.0974 µM).

And the MIC (P. vulgaris IAM1025)?
The MIC was 0.05 µg/mL (≈ 0.0974 µM).

What about the MIC (E. coli 31) of the same compound?
Its MIC is less than 0.025 µg/mL.

Which results are given for `Cc1c[n+](CC2=C(C(=O)[O-])N3C(=O)[C@@H](NC(=O)/C(=N\OC(F)F)c4csc(N)n4)[C@H]3SC2)n(C)c1N` [Compound D, 7β-[2-(2-Aminothiazol-4-yl)-2-(difluoromethoxyimino)acetamido]-3-(3-amino-2,4-dimethyl-1-pyrazolio)methyl-3-cephem-4-carboxylate (syn isomer)]?
MIC (P. mirabilis 1): 0.05 µg/mL (≈ 0.0922 µM); MIC (P. vulgaris IAM1025): ≤ 0.025 µg/mL; MIC (E. coli 31): ≤ 0.025 µg/mL

What does the source list for `Cn1ccc[n+]1CC1=C(C(=O)[O-])N2C(=O)[C@@H](NC(=O)/C(=N\OC3C=CCC3)c3csc(N)n3)[C@H]2SC1` (stereo partly drawn) [Compound B, 7β-[2-(2-Aminothiazol-4-yl)-2-(2-cyclopenten-1-yloxyimino)acetamido]-3-(2-methyl-1-pyrazolio)methyl-3-cephem-4-carboxylate (syn isomer)]?
MIC (P. mirabilis 1): 0.2 µg/mL (≈ 0.378 µM); MIC (P. vulgaris IAM1025): 0.05 µg/mL (≈ 0.0944 µM); MIC (E. coli 31): 0.05 µg/mL (≈ 0.0944 µM)
